This note sets out measurements from US6825350B2, “Sulfonamide and sulfamide substituted imidazoquinolines and methods for the treatment of periodontal disease using these and other immune response modifiers” (3M Innovative Properties Company, priority 1999, dated 2004).

Read-outs that look alike come from different tables or passages of the source.

One assay deals with interferon (α). Kind of assay: Cytokine induction in human cells: interferon (α) by ELISA. Format: cell-based. Conditions: human PBMCs, 18 to 24 hours incubation, ELISA of culture supernatant, read-out: Lowest Effective Concentration (μM) Interferon. Background: In an ELISA, binding on a coated surface is turned into a signal by an enzyme label.
In assay [1] the test system is tumor necrosis factor (α). Put plainly: Cytokine induction in human cells: tumor necrosis factor (α) by ELISA. Format: cell-based. To be noted: Homo sapiens, PBMC, human PBMCs, 18 to 24 hours incubation, ELISA of culture supernatant; read-out: Lowest Effective Concentration (μM) Tumor Necrosis Factor.

`COCCc1nc2c(N)nc3ccccc3c2n1CCCCNS(=O)(=O)c1ccc(Cl)s1` [Example 131]: the minimal effective concentration in the assay on interferon (α) (Homo sapiens, PBMC) is 0.0001 µM; in assay [1] it was 1 µM.
Take `COCCc1nc2c(N)nc3ccccc3c2n1CCCCNS(=O)(=O)c1ccc(F)cc1` [Example 121]: the minimal effective concentration with interferon (α) (Homo sapiens, PBMC) came to 0.0001 µM; in assay [1], 10 µM.
Regarding `CCCCc1nc2c(N)nc3ccccc3c2n1CCNS(=O)(=O)c1ccc(C(C)(C)C)cc1` [Example 25], the minimal effective concentration in the assay on interferon (α) (Homo sapiens, PBMC) was 3.33 µM; in assay [1] it was over 30 µM.
As for `CCCCc1nc2c(N)nc3ccccc3c2n1CCCCNS(=O)(=O)c1ccc(Cl)c([N+](=O)[O-])c1` [Example 86], the minimal effective concentration in the assay on interferon (α) (Homo sapiens, PBMC) came to 0.01 µM; in assay [1], 1 µM.
Turning to `COc1ccc(Br)cc1S(=O)(=O)NCCCCn1cnc2c(N)nc3c(c21)CCCC3` [Example 66], the minimal effective concentration in the assay on interferon (α) (Homo sapiens, PBMC) was over 30 µM; in assay [1], 30 µM.
For `CCCCc1nc2c(N)nc3ccccc3c2n1CCNS(=O)(=O)c1ccc(Br)cc1` [Example 21], the minimal effective concentration with interferon (α) (Homo sapiens, PBMC) was determined as 1.11 µM; in assay [1], 30 µM.
The corresponding values for `CCOC(=O)C1CCN(S(=O)(=O)NCCCCn2c(CCOC)nc3c(N)nc4ccccc4c32)CC1` [Example 227] are 0.001 µM and over 10 µM.
For `Nc1nc2c(c3c1ncn3CCCCNS(=O)(=O)c1ccc(I)cc1)CCCC2` [Example 61] the same measures were 3.33 µM and over 30 µM.
For the compound `CCCCc1nc2c(N)nc3c(c2n1CCCCNS(C)(=O)=O)CCCC3` [Example 202], the minimal effective concentration with interferon (α) (Homo sapiens, PBMC) was found to be 0.0001 µM; in assay [1] it was 1 µM.
As to `COCCc1nc2c(N)nc3ccccc3c2n1CCCCNS(=O)(=O)c1ccc(Cl)cc1` [Example 128], the minimal effective concentration with interferon (α) (Homo sapiens, PBMC) turned out to be 0.0001 µM; in assay [1], 1 µM.
As for `COCCc1nc2c(N)nc3ccccc3c2n1CCCCNS(=O)(=O)c1cccs1` [Example 112], the minimal effective concentration was 0.0001 µM in the assay with interferon (α) (Homo sapiens, PBMC) and over 10 µM in assay [1].
For the compound `CCCCc1nc2c(N)nc3ccccc3c2n1CCCCNS(=O)(=O)c1c(C)noc1C` [Example 94], the minimal effective concentration was 0.001 µM with interferon (α) (Homo sapiens, PBMC) and 1 µM in assay [1].
As to `CCCCc1nc2c(N)nc3ccccc3c2n1CCCCNS(=O)(=O)c1ccc2c(c1)CN(C(=O)C(F)(F)F)CC2` [Example 102], the minimal effective concentration in the assay on interferon (α) (Homo sapiens, PBMC) was found to be 0.001 µM; in assay [1], 10 µM.
`CCCCc1nc2c(N)nc3ccccc3c2n1CCCCNS(=O)(=O)CCC` [Example 51]: the minimal effective concentration stood at 0.0015 µM in the assay on interferon (α) (Homo sapiens, PBMC) and 0.37 µM in assay [1].
Turning to `COCCc1nc2c(N)nc3ccccc3c2n1CCCCNS(=O)(=O)Nc1ccccc1` [Example 224], the minimal effective concentration with interferon (α) (Homo sapiens, PBMC) was found to be 0.0001 µM; in assay [1], 10 µM.
Turning to `CCCCCCCCS(=O)(=O)NCCn1c(CCCC)nc2c(N)nc3ccccc3c21` [Example 18], the minimal effective concentration in the assay on interferon (α) (Homo sapiens, PBMC) is 3.33 µM; in assay [1] it was over 30 µM.
Consider `COCCc1nc2c(N)nc3ccccc3c2n1CCCCNS(=O)(=O)c1cccc(F)c1` [Example 122], for which the minimal effective concentration in the assay on interferon (α) (Homo sapiens, PBMC) was found to be 0.0001 µM; in assay [1] it was 1 µM.
For `CCCCS(=O)(=O)NCCCCn1c(CCOC)nc2c(N)nc3c(c21)CCCC3` [Example 209] the same measures were 0.0001 µM and 0.1 µM.
For `COCCc1nc2c(N)nc3ccccc3c2n1CCCCNS(C)(=O)=O` [Example 111] the same measures were 0.001 µM and 10 µM.
Take `CCCCc1nc2c(N)nc3ccccc3c2n1CCNS(=O)(=O)c1c(C)cc(C)cc1C` [Example 26]: the minimal effective concentration in the assay on interferon (α) (Homo sapiens, PBMC) is 10 µM; in assay [1], over 30 µM.
The corresponding values for `CCCCc1nc2c(N)nc3ccccc3c2n1CCNS(=O)(=O)c1ccc(C)cc1` [Example 23] are 0.12 µM and 10 µM.
Regarding `CCCCc1ccc(S(=O)(=O)NCCCCn2c(CCCC)nc3c(N)nc4ccccc4c32)cc1` [Example 98], the minimal effective concentration is 1 µM with interferon (α) (Homo sapiens, PBMC) and over 10 µM in assay [1].
`Nc1nc2c(c3c1ncn3CCCCNS(=O)(=O)c1ccc(Cl)c(Cl)c1)CCCC2` [Example 60]: the minimal effective concentration with interferon (α) (Homo sapiens, PBMC) is over 30 µM; in assay [1], over 30 µM.
As for `CCCCc1nc2c(N)nc3ccccc3c2n1CCNS(=O)(=O)Cc1ccccc1` [Example 28], the minimal effective concentration came out at 1.11 µM in the assay on interferon (α) (Homo sapiens, PBMC) and 30 µM in assay [1].
In the case of `CCCCc1nc2c(N)nc3ccccc3c2n1CCNS(=O)(=O)c1cc(Br)ccc1OC` [Example 24], the minimal effective concentration with interferon (α) (Homo sapiens, PBMC) was 0.12 µM; in assay [1], 30 µM.
For `CCOCc1nc2c(N)nc3ccccc3c2n1CCNS(C)(=O)=O` [Example 108], the minimal effective concentration stood at 0.1 µM in the assay on interferon (α) (Homo sapiens, PBMC) and 10 µM in assay [1].
Take `CCOCc1nc2c(N)nc3ccccc3c2n1CCNS(=O)(=O)c1cccs1` [Example 109]: the minimal effective concentration in the assay on interferon (α) (Homo sapiens, PBMC) came out at 1 µM; in assay [1] it was 10 µM.
For `CCCCc1nc2c(N)nc3ccccc3c2n1CCNS(=O)(=O)c1cccc2cccnc12` [Example 30] the same measures were 1.11 µM and over 30 µM.
For `COCCc1nc2c(N)nc3ccccc3c2n1CCCCNS(=O)(=O)c1cccc2c(N(C)C)cccc12` [Example 114], the minimal effective concentration in the assay on interferon (α) (Homo sapiens, PBMC) was 0.01 µM; in assay [1], over 10 µM.
For `CCCCc1nc2c(N)nc3ccccc3c2n1CCNS(=O)(=O)CCC` [Example 17], the minimal effective concentration was found to be 1.11 µM in the assay with interferon (α) (Homo sapiens, PBMC) and 3.33 µM in assay [1].
For the compound `CCCCc1nc2c(N)nc3ccccc3c2n1CCCCNS(=O)(=O)c1sc(NC(C)=O)nc1C` [Example 77], the minimal effective concentration in the assay with interferon (α) (Homo sapiens, PBMC) was 0.001 µM; in assay [1], 1 µM.
For `CCCCc1nc2c(N)nc3ccccc3c2n1CCCCNS(=O)(=O)c1ccc(C(=O)O)cc1` [Example 84] the same measures were 1 µM and 10 µM.
For the compound `CCCCc1nc2c(N)nc3ccccc3c2n1CCCCNS(=O)(=O)c1ccccc1C(F)(F)F` [Example 103], the minimal effective concentration was found to be 0.1 µM with interferon (α) (Homo sapiens, PBMC) and 10 µM in assay [1].
The corresponding values for `CC(C)(C)c1ccc(S(=O)(=O)NCCCCn2cnc3c(N)nc4c(c32)CCCC4)cc1` [Example 62] are over 30 µM and over 30 µM.
With `CCCCc1nc2c(N)nc3ccccc3c2n1CCCCNS(=O)(=O)c1cc(Br)ccc1OC` [Example 52], the values for the minimal effective concentration (in the assay with interferon (α); in assay [1]) were 0.12 µM and 10 µM, respectively.
`CCCCc1nc2c(N)nc3ccccc3c2n1CCCCNS(=O)(=O)c1ccc(C)c([N+](=O)[O-])c1` [Example 97]: the minimal effective concentration in the assay with interferon (α) (Homo sapiens, PBMC) was 0.1 µM; in assay [1] it was 10 µM.
As for `CCCCc1nc2c(N)nc3c(c2n1CCCCNS(=O)(=O)Cc1ccccc1)CCCC3` [Example 205], the minimal effective concentration with interferon (α) (Homo sapiens, PBMC) was found to be 0.0001 µM; in assay [1], 1 µM.
As for `CCCCc1nc2c(N)nc3ccccc3c2n1CCCCNS(=O)(=O)c1cccc([N+](=O)[O-])c1` [Example 83], the minimal effective concentration with interferon (α) (Homo sapiens, PBMC) was found to be 0.001 µM; in assay [1] it was 1 µM.
For `Nc1nc2c(c3c1ncn3CCCCNS(=O)(=O)c1ccc(Cl)cc1)CCCC2` [Example 59], the minimal effective concentration was 3.33 µM in the assay on interferon (α) (Homo sapiens, PBMC) and over 30 µM in assay [1].
With `COCCc1nc2c(N)nc3ccccc3c2n1CCCCNS(=O)(=O)N[C@H](C)c1ccccc1` [Example 226], the minimal effective concentration in the assay with interferon (α) (Homo sapiens, PBMC) is 0.0001 µM; in assay [1], 0.1 µM.
For the compound `COCCc1nc2c(N)nc3ccccc3c2n1CCCCNS(=O)(=O)C[C@@]12CCC(CC1=O)C2(C)C` [Example 200], the minimal effective concentration in the assay on interferon (α) (Homo sapiens, PBMC) is 0.01 µM; in assay [1] it was 0.1 µM.
The corresponding values for `CCCCc1nc2c(N)nc3ccccc3c2n1CCCCNS(=O)(=O)c1cccc2cccnc12` [Example 43] are 0.04 µM and over 30 µM.
On to `CCCCc1nc2c(N)nc3ccccc3c2n1CCCCNS(=O)(=O)C(F)(F)F` [Example 53], for which the minimal effective concentration in the assay on interferon (α) (Homo sapiens, PBMC) was determined as 0.01 µM; in assay [1], 3.33 µM.
In the case of `CCCCc1nc2c(N)nc3ccccc3c2n1CCNS(=O)(=O)/C=C/c1ccccc1` [Example 29], the minimal effective concentration in the assay on interferon (α) (Homo sapiens, PBMC) was determined as 0.37 µM; in assay [1] it was 10 µM.
Consider `CCCCc1nc2c(N)nc3ccccc3c2n1CCCCNS(=O)(=O)c1c(C(C)C)cc(C(C)C)cc1C(C)C` [Example 76], for which the minimal effective concentration was over 10 µM in the assay with interferon (α) (Homo sapiens, PBMC) and over 10 µM in assay [1].
Take `CCCCc1nc2c(N)nc3ccccc3c2n1CCNS(=O)(=O)c1ccc(Cl)c(Cl)c1` [Example 22]: the minimal effective concentration in the assay with interferon (α) (Homo sapiens, PBMC) was 0.37 µM; in assay [1], over 30 µM.
In the case of `Nc1nc2c(c3c1ncn3CCCCNS(=O)(=O)Cc1ccccc1)CCCC2` [Example 67], the minimal effective concentration in the assay on interferon (α) (Homo sapiens, PBMC) is 10 µM; in assay [1] it was over 30 µM.
For `CN(C)c1cccc2c(S(=O)(=O)NCCCCn3cnc4c(N)nc5c(c43)CCCC5)cccc12` [Example 71], the minimal effective concentration is over 30 µM in the assay with interferon (α) (Homo sapiens, PBMC) and 30 µM in assay [1].
With `CCCCc1nc2c(N)nc3ccccc3c2n1CCCCNS(=O)(=O)CCCC` [Example 74], the minimal effective concentration is 0.001 µM in the assay with interferon (α) (Homo sapiens, PBMC) and 0.01 µM in assay [1].
As for `CCOCc1nc2c(N)nc3ccccc3c2n1CCNS(=O)(=O)c1cccc2c(N(C)C)cccc12` [Example 110], the minimal effective concentration with interferon (α) (Homo sapiens, PBMC) is 10 µM; in assay [1] it was over 10 µM.
